Results on 1 compound are retold here after patent publication US6893846B2, “Primers for use in detecting beta-lactamases” (priority 1998, dated 2005).

Values after ≈ are worked out from the molar mass of the structure shown. Where two headings read alike, the source gives them in different places.

The target of assay [1] is single beta-lactamase in P. mirabilis cell extracts (Escherichia coli, UniProt P62593, E102K/R162S). The assay can be described thus: Spectrophotometric hydrolysis assay on crude beta-lactamase extracts. The conditions noted are these: P. mirabilis Pit 85 extract, beta-lactamase pI 5.6; 100 μM substrate.
The test system of assay [2] is E. coli C600N transconjugants. The assay can be described thus: Susceptibility of transconjugants. Type of assay: cell-based, Escherichia coli. The conditions noted are these: E. coli C600N transconjugants of E. aerogenes 187, 200, 220, 184. The procedure:
Antibiotic susceptibilities were determined by standard disk-diffusion (NCCLS Standard M2-A6) and agar-dilution (NCCLS Standard M7-A4) procedures. Disks were obtained from Becton Dickinson Microbiology Systems (Cockeysville, Md.). Disk-diffusion susceptibilities to the following antibiotics were determined, ampicillin; amoxicillin clavulanic acid; aztreonam; cefazolin; cefoxitin; cefuroxime; cefotaxime; ceftriaxone; ceftazidime; cefepime; imipenem; gentamicin; trimethoprim/sulfamethoxazole and ciprofloxacin. […] The following quality control strains were run simultaneously with the test organisms Escherichia coli ATCC 25922, Pseudomonas aeruginosa ATCC 27853, and E. coli ATCC 35218. Throughout this study, results were interpreted using NCCLS criteria for disk diffusion (NCCLS M2-A6) and broth dilution (NCCLS M7-A4).
[…]. The filter paper mating technique with overnight incubation at 37° C. were performed as described previously (Philippon et al., Antimicrob. Agents Chemother., 33:1131-1136 (1989)). Transconjugants were selected on LB (Luria Bertani) agar [Difco (Detroit, Mich.)] plates containing 12 μg per ml nalidixic acid and 20 μg per ml ampicillin.

Assay [3] concerns E. aerogenes. Type of assay: cell-based, Enterobacter aerogenes. The procedure:
Antibiotic susceptibilities were determined by standard disk-diffusion (NCCLS Standard M2-A6) and agar-dilution (NCCLS Standard M7-A4) procedures. Disks were obtained from Becton Dickinson Microbiology Systems (Cockeysville, Md.). […] Throughout this study, results were interpreted using NCCLS criteria for disk diffusion (NCCLS M2-A6) and broth dilution (NCCLS M7-A4).

For another assay, the system named is P. mirabilis. Description: Agar dilution MIC, South African isolates. The assay is classed as cell-based, Proteus mirabilis. The conditions noted are these: 4 strains, tzp with tazobactam 4 μg/ml. The method in brief:
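Clinical isolates from South African hospitals, intermediate or resistant to cefotaxime or ceftazidime and lacking inducible beta-lactamases, were tested by NCCLS M7-T2 agar dilution. Quality-control strains E. coli ATCC 25922 and 35218, P. aeruginosa ATCC 27853 and S. aureus ATCC 29213 were run alongside. Results were interpreted by NCCLS criteria.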
Background: In agar dilution, organisms are placed on agar that contains the substance at set levels.

For assay [4], the target named is beta-lactamases in sonic extracts of P. mirabilis (Escherichia coli, UniProt P62593, E102K/R162S). Description: Isoelectric focusing overlay: cefotaxime hydrolysis and inhibitors. The conditions noted are these: beta-lactamase pI 5.6 (TEM-10 or 26), 0.75 μg/ml cefotaxime.
Assay [5] concerns the target single beta-lactamase in K. pneumoniae cell extracts (Escherichia coli, UniProt P62593, E102K/R162S). The assay can be described thus: Spectrophotometric hydrolysis assay on crude beta-lactamase extracts. Conditions: K. pneumoniae Pit 16 extract, beta-lactamase pI 5.6; 100 μM substrate.
Assay [6] deals with single beta-lactamase in K. pneumoniae cell extracts (Klebsiella pneumoniae, UniProt P0AD64, E235K/G234S). Described as above. Conditions: K. pneumoniae Pit 82 extract, beta-lactamase pI 8.2; 100 μM substrate.
Assay [7] concerns the target single beta-lactamase in K. pneumoniae cell extracts (Klebsiella pneumoniae, UniProt P0AD64, G234S). The assay is described as above. The conditions noted are these: K. pneumoniae Pit 100 extract, beta-lactamase pI 7.6; 100 μM substrate.
For assay [8], the system named is E. coli HB101 transformant (17 kb plasmid). The conditions noted are these: disk diffusion, Tr (17 kb) = transformant E. coli HB101. On the technique in general: A growth-free zone around the sample is the usual read-out of agar diffusion tests.
Assay [9] deals with beta-lactamases in sonic extracts of E. coli. The assay can be described thus: Isoelectric focusing overlay: cefotaxime hydrolysis and inhibitors. The conditions noted are these: 0.75 μg/ml cefotaxime.
For assay [10], the target named is beta-lactamases in sonic extracts of E. coli (Escherichia coli, UniProt P62593). The description is as above. The conditions noted are these: 0.75 μg/ml cefotaxime.
Assay [11] relates to E. aerogenes. The assay can be described thus: Double-disk potentiation test. The assay is classed as cell-based, Enterobacter aerogenes. Conditions: all the E. aerogenes strains selected; potentiation by clavulanic acid. The text has this:
This test described by Jarlier et al., Rev. Infect. Dis.

The subject of assay [12] is beta-lactamases in sonic extracts of E. aerogenes. The assay can be described thus: Isoelectric focusing overlay: cefotaxime hydrolysis, inhibitors, induction. The conditions noted are these: 0.75 μg/ml cefotaxime.
The subject of the next assay is K. pneumoniae 225. Conditions: test drug disk around amoxicillin-clavulanate disk.

On to `CO/N=C(\C(=O)N[C@@H]1C(=O)N2C(C(=O)O)=C(COC(C)=O)CS[C@H]12)c1csc(N)n1` [cefotaxime], for which the Hydrolysis in assay [1] was 5 nmol of substrate hydrolyzed/m; in assay [5], 4 nmol of substrate hydrolyzed/m; in assay [6], 11 nmol of substrate hydrolyzed/m; in assay [7], 11 nmol of substrate hydrolyzed/m. In assay [2], the “susceptibility after transfer of plasmids encoding SHV beta-lactamase genes” value is “decreased susceptibility”. Moreover, the MIC range in the assay with E. aerogenes [3] (1 E. aerogenes strain with Bush group 1 and group 2be (SHV-3) enzymes) was 1 µg/mL (≈ 2.2 µM); in the assay with E. aerogenes [3] (1 E. aerogenes strain with Bush group 1 and group 2be (SHV-5) enzymes) it was 1 to 2 µg/mL; in the assay on E. aerogenes [3] (29 E. aerogenes strains with Bush group 1 and group 2be (SHV-4) enzymes) it was 1 to 2 µg/mL; with P. mirabilis, 0.25 to 0.5 µg/mL. The “susceptibility by MIC” value with E. aerogenes [3] (all E. aerogenes strains) is reported as “decreased susceptibility”. Further, the ctx hydrolysis entry in assay [4] is given as “Yes”; in assay [9] (Ec1, beta-lactamase pI 5.6 (TEM-10 or 26)) it was “Yes”; in assay [9] (Ec2, beta-lactamase pI 7.6 (SHV-2 or 8)), “Yes”; in assay [10] (Ec1, beta-lactamase pI 5.4 (TEM-1)) it was “No”; in [10] (Ec2, beta-lactamase pI 5.4 (TEM-1)) it was “No”. Moreover, the “Zone Size” value in [8] was determined as 34 mm. Also, the double disk test entry with E. aerogenes [11] is “positive”. For the same compound, the “Ctx Hydrolysis” value is “no” in assay [12] (SHV-3 strain (1), Bush group 1 enzyme pI 8.3); “yes” in assay [12] (SHV-3 strain (1), Bush group 2be enzyme pI 6.9); “no” in [12] (SHV-4 strains (29), Bush group 1 enzyme pI 8.3); “yes” in assay [12] (SHV-4 strains (29), Bush group 2be enzyme pI 7.8); “no” in [12] (SHV-5 strain (1), Bush group 1 enzyme pI 8.3); “yes” in assay [12] (SHV-5 strain (1), Bush group 2Be enzyme pI 8.0). For the same compound, the “clavulanate double-disk potentiation test” value in the assay with K. pneumoniae 225 is given as “positive”.
